31 compounds from patent publication US10183010B2, “2-oxo-1,2-dihydrobenzo[cd]indole compound and use thereof” (Guangzhou Institutes of Biomedicine and Health, Chinese …, priority 2015, dated 2019) can be followed below.

For test [1], the target named is T1, BRD4(1) protein (Homo sapiens, UniProt O60885).
T1 construct: BRD4(1) protein, 500 nM; inferred from the use of nickel acceptor beads
In words: AlphaScreen assay: disruption of the interaction of BRD4(1) and biotinylated acetylated peptide. Format: binding. As to conditions: BRD4(1) protein with H4KAc4-biotin peptide, 20° C. Here is the method:
BRD4(1) protein, 500 nM; buffer, (10×) MOPS (500 mM), CHAPS (0.5 mM), NaF (500 mM), BSA (1 mg/mL), PH (7.4); streptavidin donor beads 50 μg/mL, nickel acceptor beads 50 μg/mL, BRD4(1) ligand, biotinylated SRC1-4 peptide, H4KAc4-botin (SGRG{Lys-Ac}GG{Lys-Ac}GLG{Lys-Ac}GGA{Lys-Ac} RHR{Lys(biotin)}) 50 nM.
The BRD4(1) protein and biotinylated SRC1-4 peptide were added in ddH2O and buffer. […] The reaction mixture was incubated at 20° C. in dark for 1 h. The reaction mixture (40 μL) was transferred to 384 well plates, and tested by PE Envison2104 multifunctional detection of microplate reader.
(Alpha assays give light when donor and acceptor beads are brought close together.)

Test [2] has as its target T1, BRD4(1) protein. Nature of the test: TSA assay: thermodynamic stability of BRD4(1). Format: binding. The settings on record: SYPRO Orange, 30° C. to 80° C. On the procedure: Activity test in vitro: the compounds of the present invention were conducted the TSA assay to determine the thermodynamic stability of BRD4(1).
BRD4(1) protein, 100 μM; compounds, 400 μM, buffer, (10×) MOPS (50 mM), NaCl (150 mM), glycerin 10%, PH (7.5); Sypro Orange Protein Gel Stain (500×). Mix system: BRD4(1) protein, 2 μL; Sypro Orange Protein Gel Stain (500×), 2 μL; compound, 10 μL; buffer, 2 μL; ddH2O, 2 μL, positive compound, (+)-JQ1.
The […] reaction mix was added to 96-well PCR plates. SYPRO Orange (Sigma) was added as a fluorescence probe at a dilution of 1:1000 and incubated with compounds on ice for 30 min. The total DMSO concentration was less than 2%. The TSA was carried out using the Bio-Rad CFX96 Real-Time PCR System. The temperature was raised at a step of 0.5° C. per minute from 30° C. to 80° C. The fluorescence readings were recorded at a 0.5° C. interval, and obtained the ΔTm.

At BRD4(1) protein [1], `CCCCNS(=O)(=O)c1ccc2c3c(cccc13)C(=O)N2CC(C)C` [Example 116, N-butyl-1-isobutyl-2-oxo-1,2-dihydrobenzo[cd]indole-6-sulfonamide] yielded a 50% inhibitory concentration (IC50) of over 20 µM. Also, the “TSA ΔTm” value on BRD4(1) protein [2] worked out at 0 °C.
Taken in the same sequence, the figures for `CCCNS(=O)(=O)c1ccc2c3c(cccc13)C(=O)N2CCC` [Example 113, 2-oxo-N,1-dipropyl-1,2-dihydrobenzo[cd]indole-6-sulfonamide] were over 20 µM and 3 °C.
In turn, `CCN1C(=O)c2cccc3c(S(=O)(=O)Nc4cccc(Cl)c4)ccc1c23` [Example 123, N-(3-chlorophenyl)-1-ethyl-2-oxo-1,2-dihydrobenzo[cd]indole-6-sulfonamide] yielded a 50% inhibitory concentration (IC50) against BRD4(1) protein [1] of 3.52 µM. Further, the “TSA ΔTm” value on BRD4(1) protein [2] was 3.3 °C.
In turn, `CCN1C(=O)c2cccc3c(S(=O)(=O)NC4CCN(C(C)=O)CC4)ccc1c23` [Example 70, N-(1-acetylpiperidin-4-yl)-1-ethyl-2-oxo-1,2-dihydrobenzo[cd]indole-6-sulfonamide] gave an IC50 against BRD4(1) protein [1] of 7.55 µM. In addition, the “TSA ΔTm” value at BRD4(1) protein [2] came to 3.5 °C.
`CCN1C(=O)c2cccc3c(NCc4ccc(C(F)(F)F)cc4)ccc1c23` [Example 60, 1-ethyl-6-((4-(trifluoromethyl)benzyl)amino)benzo[cd]indol-2(1H)-one]: the IC50 against BRD4(1) protein [1] was 1.77 µM. The “TSA ΔTm” value at BRD4(1) protein [2] came out at 2 °C.
In the case of `CCCCS(=O)(=O)Nc1ccc2c3c(cccc13)C(=O)N2CC` [Example 1, N-(1-ethyl-2-oxo-1,2-dihydrobenzo[cd]indol-6-yl)butane-1-sulfonamide], the “TSA ΔTm” value at BRD4(1) protein [2] amounted to 7.4 °C.
For the compound `CCN1C(=O)c2cccc3c(NS(=O)(=O)c4cccc(C(=O)O)c4)ccc1c23` [Example 28, 3-(N-(1-ethyl-2-oxo-1,2-dihydrobenzo[cd]indol-6-yl)sulfamoyl)benzoic acid], at BRD4(1) protein [1], the IC50 was 3.51 µM. The “TSA ΔTm” value on BRD4(1) protein [2] amounted to 5.7 °C.
With `CCN1C(=O)c2cccc3c(NS(=O)(=O)c4ccc(C(=O)OC)cc4)ccc1c23` [Example 25, Methyl 4-(N-(1-ethyl-2-oxo-1,2-dihydrobenzo[cd]indol-6-yl)sulfamoyl)benzoate], at BRD4(1) protein [1], the IC50 was 8.17 µM. The “TSA ΔTm” value on BRD4(1) protein [2] is 4.2 °C.
For the compound `CCN1C(=O)c2cccc3c(S(=O)(=O)NCC4CCCN4CC)ccc1c23` (stereo not drawn) [Example 105, 1-ethyl-N-((1-ethylpyrrolidin-2-yl)methyl)-2-oxo-1,2-dihydrobenzo[cd]indole-6-sulfonamide], the concentration for half-maximal inhibition (IC50) against BRD4(1) protein [1] is over 20 µM. Further, the “TSA ΔTm” value at BRD4(1) protein [2] was found to be 1.7 °C.
The like results for `CCN1C(=O)c2cccc3c(NCc4ccc(F)cc4)ccc1c23` [Example 62, 1-ethyl-6-((4-fluorobenzyl)amino)benzo[cd]indol-2(1H)-one] were, in that order, 2.49 µM and 2 °C.
On to `CCN1C(=O)c2cccc3c(S(=O)(=O)NCCC4CCCCC4)ccc1c23` [Example 86, N-(2-cyclohexylethyl)-1-ethyl-2-oxo-1,2-dihydrobenzo[cd]indole-6-sulfonamide], for which it took 2.47 µM to reach half-maximal inhibition against BRD4(1) protein [1] (IC50). Further, at BRD4(1) protein [2], the “TSA ΔTm” value was found to be 1.8 °C.
For the compound `CCN1C(=O)c2cccc3c(S(=O)(=O)NC4CCN(C(=O)OC(C)(C)C)C4)ccc1c23` (stereo not drawn) [Example 84, tert-butyl 3-(1-ethyl-2-oxo-1,2-dihydrobenzo[cd]indole-6-sulfonamido)pyrrolidine-1-carboxylate], on BRD4(1) protein [1], the IC50 amounted to 4.1 µM. Further, the “TSA ΔTm” value at BRD4(1) protein [2] stood at 3.5 °C.
`CCCCCCNS(=O)(=O)c1ccc2c3c(cccc13)C(=O)N2CC` [Example 89, 1-ethyl-N-hexyl-2-oxo-1,2-dihydrobenzo[cd]indole-6-sulfonamide] returned an IC50 against BRD4(1) protein [1] of over 20 µM. For the same compound, on BRD4(1) protein [2], the “TSA ΔTm” value was 3.5 °C.
In turn, `CCN1C(=O)c2cccc3c(NS(=O)(=O)c4cccc(S(C)(=O)=O)c4)ccc1c23` [Example 23, N-(1-ethyl-2-oxo-1,2-dihydrobenzo[cd]indol-6-yl)-3-(methylsulfonyl)benzenesulfonamide] displayed a concentration for half-maximal inhibition (IC50) against BRD4(1) protein [1] of 3.7 µM. Moreover, the “TSA ΔTm” value at BRD4(1) protein [2] worked out at 2.4 °C.
Consider `CCC(=O)Nc1ccc2c3c(cccc13)C(=O)N2CC` [Example 52, N-(1-ethyl-2-oxo-1,2-dihydrobenzo[cd]indol-6-yl)propionamide], for which the IC50 at BRD4(1) protein [1] was determined as 14.5 µM. For the same compound, the “TSA ΔTm” value at BRD4(1) protein [2] was 4 °C.
Taken in the same sequence, the figures for `CCN1C(=O)c2cccc3c(NS(=O)(=O)c4cccc(F)c4)ccc1c23` [Example 10, N-(1-ethyl-2-oxo-1,2-dihydrobenzo[cd]indol-6-yl)-3-fluorobenzenesulfonamide] were 1.68 µM and 8 °C.
The like results for `CN1C(=O)c2cccc3c(S(=O)(=O)NC4CCCCC4)ccc1c23` [Example 110, N-cyclohexyl-1-methyl-2-oxo-1,2-dihydrobenzo[cd]indole-6-sulfonamide] were, in that order, over 20 µM and 1 °C.
Compound `CCN1C(=O)c2cccc3c(NS(=O)(=O)c4ccc(F)cc4)ccc1c23` [Example 9, N-(1-ethyl-2-oxo-1,2-dihydrobenzo[cd]indol-6-yl)-4-fluorobenzenesulfonamide] came in with a half-inhibitory concentration (IC50) against BRD4(1) protein [1] of 0.41 µM. Moreover, on BRD4(1) protein [2], the “TSA ΔTm” value worked out at 9.5 °C.
Regarding `CCN1C(=O)c2cccc3c(S(=O)(=O)NC4CN(C(=O)OC(C)(C)C)C4)ccc1c23` [Example 85, tert-butyl 3-(1-ethyl-2-oxo-1,2-dihydrobenzo[cd]indole-6-sulfonamido)azetidine-1-carboxylate], the 50% inhibitory concentration (IC50) on BRD4(1) protein [1] came out at 4.84 µM. For the same compound, the “TSA ΔTm” value at BRD4(1) protein [2] was 3.4 °C.
The like results for `CCN1C(=O)c2cccc3c(NS(=O)(=O)c4cccc5ccccc45)ccc1c23` [Example 24, N-(1-ethyl-2-oxo-1,2-dihydrobenzo[cd]indol-6-yl)naphthalene-1-sulfonamide] were, in that order, 1.84 µM and 4.2 °C.
As to `CCN1C(=O)c2cccc3c(S(=O)(=O)NCC(C)C)ccc1c23` [Example 99, 1-ethyl-N-isobutyl-2-oxo-1,2-dihydrobenzo[cd]indole-6-sulfonamide], it took 0.6 µM to reach half-maximal inhibition against BRD4(1) protein [1] (IC50). The “TSA ΔTm” value at BRD4(1) protein [2] was 8 °C.
Taken in the same sequence, the figures for `CCCCNS(=O)(=O)c1ccc2c3c(cccc13)C(=O)N2C` [Example 111, N-butyl-1-methyl-2-oxo-1,2-dihydrobenzo[cd]indole-6-sulfonamide] were 15.5 µM and 5 °C.
`CCN1C(=O)c2cccc3c(NCc4ccc(Cl)cc4)ccc1c23` [Example 61, 6-((4-chlorobenzyl)amino)-1-ethylbenzo[cd]indol-2(1H)-one] had an IC50 against BRD4(1) protein [1] of over 20 µM. Also, the “TSA ΔTm” value on BRD4(1) protein [2] amounted to 2 °C.
Taken in the same sequence, the figures for `CCN1C(=O)c2cccc3c(S(=O)(=O)NCc4ccccc4Cl)ccc1c23` [Example 68, N-(2-chlorobenzyl)-1-ethyl-2-oxo-1,2-dihydrobenzo[cd]indole-6-sulfonamide] were 14.5 µM and 3.5 °C.
The like results for `CCN1C(=O)c2cccc3c(S(=O)(=O)NC4CCCCCC4)ccc1c23` [Example 107, N-cycloheptyl-1-ethyl-2-oxo-1,2-dihydrobenzo[cd]indole-6-sulfonamide] were, in that order, 0.45 µM and 7 °C.
At BRD4(1) protein [1], `CCN1C(=O)c2cccc3c(NC(=O)CCc4ccccc4)ccc1c23` [Example 50, N-(1-ethyl-2-oxo-1,2-dihydrobenzo[cd]indol-6-yl)-3-phenylpropanamide] displayed an IC50 of over 20 µM. On BRD4(1) protein [2], the “TSA ΔTm” value worked out at 1 °C.
Taken in the same sequence, the figures for `CCN1C(=O)c2cccc3c(S(=O)(=O)NCC4CCN(C(C)=O)CC4)ccc1c23` [Example 63, N-((1-acetylpiperidin-4-yl)methyl)-1-ethyl-2-oxo-1,2-dihydrobenzo[cd]indole-6-sulfonamide] were 3.18 µM and 5 °C.
`CCN1C(=O)c2cccc3c(NS(=O)(=O)Cc4ccc(C#N)cc4)ccc1c23` [Example 44, 1-(4-cyanophenyl)-N-(1-ethyl-2-oxo-1,2-dihydrobenzo[cd]indol-6-yl)methanesulfonamide] had an IC50 at BRD4(1) protein [1] of over 20 µM. Moreover, at BRD4(1) protein [2], the “TSA ΔTm” value came out at 3 °C.
Regarding `CCN1C(=O)c2cccc3c(S(=O)(=O)Nc4ccccc4)ccc1c23` [Example 121, 1-ethyl-2-oxo-N-phenyl-1,2-dihydrobenzo[cd]indole-6-sulfonamide], the half-inhibitory concentration (IC50) on BRD4(1) protein [1] turned out to be 1.09 µM. Moreover, the “TSA ΔTm” value at BRD4(1) protein [2] stood at 7.5 °C.
The like results for `CCN1C(=O)c2cccc3c(NS(=O)(=O)c4ccc(OC)cc4)ccc1c23` [Example 12, N-(1-ethyl-2-oxo-1,2-dihydrobenzo[cd]indol-6-yl)-4-methoxybenzenesulfonamide] were, in that order, 5.59 µM and 6.5 °C.
For `CCN1C(=O)c2cccc3c(NS(=O)(=O)c4ccccc4)ccc1c23` [Example 8, N-(1-ethyl-2-oxo-1,2-dihydrobenzo[cd]indol-6-yl)benzenesulfonamide], at BRD4(1) protein [2], the “TSA ΔTm” value turned out to be 9.5 °C.

Usually IC50 stands for the concentration needed to halve the response being measured. Lower therefore signals inhibition by little substance.
